Experimental findings from ChEMBL document CHEMBL1130887, “Serine derived NK1 antagonists. 2: A pharmacophore model for arylsulfonamide binding” (Bioorg Med Chem Lett, 1998) are described below.

The assay deals with Substance-P receptor (Homo sapiens, UniProt P25103). Briefly: Displacement of [125I]-substance P from hNK1 receptor in chinese hamster ovarian (CHO) cells. The format is cell-based. Background: In a radioligand displacement assay an active substance lowers the binding of a labelled ligand.
Substance-P receptor, sequence (P25103 whole entry): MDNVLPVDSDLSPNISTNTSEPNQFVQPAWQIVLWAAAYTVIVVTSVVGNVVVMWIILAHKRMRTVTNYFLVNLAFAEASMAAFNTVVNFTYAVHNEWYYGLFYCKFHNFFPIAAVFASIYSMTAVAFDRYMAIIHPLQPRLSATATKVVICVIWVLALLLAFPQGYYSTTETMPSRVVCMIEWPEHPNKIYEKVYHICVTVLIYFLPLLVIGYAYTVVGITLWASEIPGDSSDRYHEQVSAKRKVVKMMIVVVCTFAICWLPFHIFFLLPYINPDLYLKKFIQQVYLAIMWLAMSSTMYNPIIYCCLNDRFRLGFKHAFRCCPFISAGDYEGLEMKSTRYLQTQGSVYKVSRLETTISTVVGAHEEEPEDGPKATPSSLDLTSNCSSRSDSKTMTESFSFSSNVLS
As for `COc1ccccc1C1CCN(C(=O)[C@H](COCc2ccc(Cl)c(Cl)c2)NCc2ccccc2)CC1`, the IC50 was determined as 263 nM.

The molecule `CS(=O)(=O)Nc1ccccc1C1CCN(C(=O)[C@H](COCc2ccc(Cl)c(Cl)c2)NCc2ccccc2)CC1` had an IC50 of 17 nM.

In turn, `Cc1ccccc1C1CCN(C(=O)[C@H](COCc2ccc(Cl)c(Cl)c2)NCc2ccccc2)CC1` showed an IC50 of 330 nM.

Consider `CS(=O)(=O)N1CCC2(CCN(C(=O)[C@H](COCc3ccc(Cl)c(Cl)c3)NCc3ccccc3)CC2)C1`, for which the IC50 is 2500 nM.

For `O=C([C@H](COCc1ccc(Cl)c(Cl)c1)NCc1ccccc1)N1CCC2(CCc3ccccc32)CC1`, the IC50 is 602 nM.

The molecule `COc1ccccc1N1CCN(C(=O)[C@H](COCc2ccc(Cl)c(Cl)c2)NCc2ccccc2)CC1` displayed an IC50 of 13 nM.

As to `CS(=O)(=O)N(CC1CCN(C(=O)[C@H](COCc2ccc(Cl)c(Cl)c2)NCc2ccccc2)CC1)c1ccccc1`, the IC50 came to 547 nM.

Consider `CN(c1ccccc1C1CCN(C(=O)[C@H](COCc2ccc(Cl)c(Cl)c2)NCc2ccccc2)CC1)S(C)(=O)=O`, for which the IC50 is 61 nM.

The molecule `CS(=O)(=O)N1CC2(CCN(C(=O)[C@H](COCc3ccc(Cl)c(Cl)c3)NCc3ccccc3)CC2)c2ccccc21` displayed an IC50 of 1 nM.

On to `Cc1ccccc1N1CCN(C(=O)[C@H](COCc2ccc(Cl)c(Cl)c2)NCc2ccccc2)CC1`, for which the IC50 turned out to be 558 nM.

In turn, `CS(=O)(=O)Nc1ccccc1N1CCN(C(=O)[C@H](COCc2ccc(Cl)c(Cl)c2)NCc2ccccc2)CC1` came in with an IC50 of 4.8 nM.

With `CS(=O)(=O)NCC1(c2ccccc2)CCN(C(=O)[C@H](COCc2ccc(Cl)c(Cl)c2)NCc2ccccc2)CC1`, the IC50 was determined as 382 nM.

As usually defined, the IC50 is the midpoint of a concentration-inhibition curve. Higher therefore signals lower potency.
